Consider 25 compounds from US9611263B2, “Compounds that modulate intracellular calcium” (CALCIMEDICA, INC., priority 2013, dated 2017).

Read-outs that look alike come from different tables or passages of the source.

In one assay the test system is RBL-2H3 cells. Kind of assay: Fluorescence-based assay of store-operated calcium entry in RBL-2H3 cells. The format is cell-based, rat. To be noted: for IC50: thapsigargin, 50% inhibition of Upslope, read-out: RBL-2H3 (IC50, μmol). As for the experimental part:
B. Fluorescence-Based Assay of Store-Operated Calcium Entry in RBL-2H3 Cells.
RBL-2H3 cells are obtained from ATCC and maintained in complete medium with 10% FBS at 37° C./6% CO2.
The day prior to performing the assay, RBL-2H3 cells are plated in 50 μL of complete medium in a 384 well plate. Cells are grown at 37° C./6% CO2 overnight and grow to 50-60% confluence by the next day. On the assay day, 1.5 μM Fluo-4-AM dye (Invitrogen) in complete medium is added and incubated for 1 hour at RT. Cells are washed twice in Ca^2+-free HBSS buffer and 35 μL Ca^2+-free HBSS buffer is added to each well. 10 μL of a test compound prepared in a Ca^2+-free HBSS solution at 4.5× of the desired concentration is added to a well and incubated for 5 minutes at RT. 10 μL of thapsigargin prepared in a Ca^2+-free HBSS solution at 5.5× of the desired concentration (5.5 uM) is added to each well and incubated for an additional 25 minutes. The initial baseline fluorescence signal is measured with a FLIPR^384 (Molecular Devices) plate reader. 5 μL of 12× calcium in HBSS (12 mM) is added and changes in cellular fluorescence are measured with the FLIPR^384 plate reader. In each well, the change in the fluorescent signal as a function of time due to calcium entry into the cell is determined by calculating the difference between the fluorescent signal measured 7 seconds after calcium addition and the initial baseline fluorescence signal at time zero (t=0). This parameter is designated Upslope. The IC50 value is calculated as the concentration at which 50% of the Upslope is inhibited.

The target in a further assay is T1, Orai1/STIM1 (Homo sapiens, UniProt Q96D31).
T1 construct: expressed in transfected cells
T1 sequence (Q96D31 whole entry): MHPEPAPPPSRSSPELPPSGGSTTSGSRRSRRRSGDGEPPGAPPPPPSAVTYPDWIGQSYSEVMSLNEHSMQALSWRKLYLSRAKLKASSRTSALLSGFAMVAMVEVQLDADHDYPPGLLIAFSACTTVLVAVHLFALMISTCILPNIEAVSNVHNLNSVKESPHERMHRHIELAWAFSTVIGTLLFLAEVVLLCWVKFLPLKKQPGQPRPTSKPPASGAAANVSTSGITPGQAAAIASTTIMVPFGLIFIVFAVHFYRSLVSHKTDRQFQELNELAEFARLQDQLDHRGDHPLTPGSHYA
Kind of assay: Fluorescence-based assay of store-operated calcium entry in Orai1/STIM1 stable cells. The format is cell-based. The following applies: for IC50: HEK-293 cells stably expressing human STIM1 and Orai1, 50% inhibition of Peak-Basal fluorescence signal, read-out: Orai1/STIM1 (IC50, μmol). As for the experimental part: A. Fluorescence-Based Assay of Store-Operated Calcium Entry in Orai1/STIM1 Stable Cells.
Cells stably expressing recombinant human STIM1 and Orai1 are generated by transfecting a human Orai1 expression plasmid (pcDNA3.1-Orai1-cmyc) into HEK-293 cells stably overexpressing human STIM1 (Roos et al. 2005 JCB 169(3): 435-445). Colonies of cells stably expressing both STIM1 and Orai1 proteins are selected and then subcloned by limiting dilution. Cells were cultured at 37° C./6% CO2 in complete medium with 10% FBS and appropriate selection markers.
The day prior to performing the assay Orai1/STIM1 stable cells are plated in 50 μL of complete medium at 90-95% confluence in a 384 well plate. Cells are grown at 37° C./6% CO2 overnight. On the day of the assay, 1.5 μM fluo-4-AM (Invitrogen) in complete medium is added to the cells, which are then incubated for 1 hour at RT. Cells are washed once in Ca^2+-free HBSS (Hank's buffered saline solution) and 35 μl of Ca^2+-free HBSS is added to each well. Test compounds are added to wells in a 10 μL Ca^2+-free HBSS solution, prepared at 4.5× the desired final concentration, and incubated for 30 minutes at RT. The initial baseline fluorescence signal is then measured with a FLIPR^384 (Molecular Devices) plate reader. Calcium entry is initiated by adding 5 μl of 10× CaCl2 (10 mM) in HBSS, and changes in cellular fluorescence are measured with the FLIPR^384 plate reader. In each well, the magnitude of the fluorescence signal as a result of calcium entry into the cell is determined by calculating the difference between the peak fluorescence signal measured after calcium addition and the initial baseline fluorescence signal (designated Peak-Basal). IC50 values are typically calculated as the concentration that inhibited 50% of the Peak-Basal signal.

For the compound `O=C(Nc1ccc(-c2cn(-c3nccs3)nc2C2CC2)cn1)c1c(F)ccc(F)c1F` [Example 45, N-(5-(3-cyclopropyl-1-(thiazol-2-yl)-1H-pyrazol-4-yl)pyridin-2-yl)-2,3,6-trifluorobenzamide], the IC50 is under 600 nM with RBL-2H3 cells (Rattus norvegicus, RBL-2H3) and 600 to 1200 nM at Orai1/STIM1.

Turning to `Cc1nn(-c2nccs2)cc1-c1ccc(NC(=O)c2ccccc2F)s1` [Example 70, 2-fluoro-N-(5-(3-methyl-1-(thiazol-2-yl)-1H-pyrazol-4-yl)thiophen-2-yl)benzamide], the IC50 with RBL-2H3 cells (Rattus norvegicus, RBL-2H3) was under 600 nM; on Orai1/STIM1, under 600 nM.

With `Cc1nn(-c2ccccc2F)cc1-c1ccc(NC(=O)c2c(F)cccc2F)nc1` [Example 57, 2,6-difluoro-N-(5-(1-(2-fluorophenyl)-3-methyl-1H-pyrazol-4-yl)pyridin-2-yl)benzamide], the IC50 was under 600 nM with RBL-2H3 cells (Rattus norvegicus, RBL-2H3) and under 600 nM at Orai1/STIM1.

As to `CCc1nn(-c2nccs2)cc1-c1ccc(NC(=O)c2ccccc2F)cc1` [Example 7, N-(4-(3-ethyl-1-(thiazol-2-yl)-1H-pyrazol-4-yl)phenyl)-2-fluorobenzamide], the IC50 was under 600 nM in the assay with RBL-2H3 cells (Rattus norvegicus, RBL-2H3) and under 600 nM on Orai1/STIM1.

For the compound `Cc1nn(-c2nccs2)cc1-c1ccc(NC(=O)c2c(F)cccc2F)cc1` [Example 1, 2,6-difluoro-N-(4-(3-methyl-1-(thiazol-2-yl)-1H-pyrazol-4-yl)phenyl)benzamide], the IC50 is under 600 nM in the assay on RBL-2H3 cells (Rattus norvegicus, RBL-2H3) and under 600 nM at Orai1/STIM1.

For the compound `Cc1nn(-c2nccs2)cc1-c1cnc(NC(=O)c2ccccc2F)cn1` [Example 25, 2-fluoro-N-(5-(3-methyl-1-(thiazol-2-yl)-1H-pyrazol-4-yl)pyrazin-2-yl)benzamide], the IC50 in the assay on RBL-2H3 cells (Rattus norvegicus, RBL-2H3) is under 600 nM; on Orai1/STIM1, under 600 nM.

Turning to `Cc1nn(-c2nccs2)cc1-c1cnc(NC(=O)c2c(F)cc(F)cc2F)cn1` [Example 28, 2,4,6-trifluoro-N-(5-(3-methyl-1-(thiazol-2-yl)-1H-pyrazol-4-yl)pyrazin-2-yl)benzamide], the IC50 was under 600 nM in the assay with RBL-2H3 cells (Rattus norvegicus, RBL-2H3) and under 600 nM at Orai1/STIM1.

In the case of `Cc1cnc(-n2cc(-c3ccc(NC(=O)c4c(F)cccc4F)nc3)c(C)n2)s1` [Example 63, 2,6-difluoro-N-(5-(3-methyl-1-(5-methylthiazol-2-yl)-1H-pyrazol-4-yl)pyridin-2-yl)benzamide], the RBL-2H3 efficacy with RBL-2H3 cells (given in place of a class) is listed as under 50%. Further, on Orai1/STIM1 (given in place of a class), the Orai1/STIM1 efficacy is on record as under 50%.

In the case of `Cc1nn(-c2cc(F)ccc2F)cc1-c1ccc(NC(=O)c2c(F)cccc2F)nc1` [Example 55, N-(5-(1-(2,5-difluorophenyl)-3-methyl-1H-pyrazol-4-yl)pyridin-2-yl)-2,6-difluorobenzamide], the IC50 is under 600 nM with RBL-2H3 cells (Rattus norvegicus, RBL-2H3) and under 600 nM at Orai1/STIM1.

On to `Cc1cccc(F)c1C(=O)Nc1ccc(-c2cn(-c3nccs3)nc2C)cn1` [Example 19, 2-fluoro-6-methyl-N-(5-(3-methyl-1-(thiazol-2-yl)-1H-pyrazol-4-yl)pyridin-2-yl)benzamide], for which the IC50 is under 600 nM in the assay on RBL-2H3 cells (Rattus norvegicus, RBL-2H3) and under 600 nM at Orai1/STIM1.

For `O=C(Nc1ccc(-c2cn(-c3nccs3)nc2C(F)(F)F)cn1)c1c(F)cccc1F` [Example 52, 2,6-difluoro-N-(5-(1-(thiazol-2-yl)-3-(trifluoromethyl)-1H-pyrazol-4-yl)pyridin-2-yl)benzamide], the IC50 in the assay on RBL-2H3 cells (Rattus norvegicus, RBL-2H3) is under 600 nM; at Orai1/STIM1, under 600 nM.

On to `CCc1nn(-c2nccs2)cc1-c1ccc(NC(=O)c2cc(F)nc(F)c2)cc1F` [Example 34, N-(4-(3-ethyl-1-(thiazol-2-yl)-1H-pyrazol-4-yl)-3-fluorophenyl)-2,6-difluoroisonicotinamide], for which the IC50 with RBL-2H3 cells (Rattus norvegicus, RBL-2H3) is under 600 nM; at Orai1/STIM1, over 1200 nM.

Take `Cc1nn(-c2nccs2)cc1-c1ccc(NC(=O)c2c(F)ccc(F)c2F)cc1` [Example 4, 2,3,6-trifluoro-N-(4-(3-methyl-1-(thiazol-2-yl)-1H-pyrazol-4-yl)phenyl)benzamide]: the IC50 in the assay with RBL-2H3 cells (Rattus norvegicus, RBL-2H3) is under 600 nM; at Orai1/STIM1, under 600 nM.

For the compound `O=C(Nc1ccc(-c2cn(-c3nccs3)nc2C2CC2)c(F)c1)c1c(F)cc(F)cc1F` [Example 43, N-(4-(3-cyclopropyl-1-(thiazol-2-yl)-1H-pyrazol-4-yl)-3-fluorophenyl)-2,4,6-trifluorobenzamide], the IC50 was under 600 nM in the assay with RBL-2H3 cells (Rattus norvegicus, RBL-2H3) and over 1200 nM at Orai1/STIM1.

In the case of `Cc1nn(-c2nccs2)cc1-c1ccc(NC(=O)c2c(F)ccc(F)c2F)nc1` [Example 20, 2,3,6-trifluoro-N-(5-(3-methyl-1-(thiazol-2-yl)-1H-pyrazol-4-yl)pyridin-2-yl)benzamide], the IC50 with RBL-2H3 cells (Rattus norvegicus, RBL-2H3) was under 600 nM; at Orai1/STIM1, under 600 nM.

On to `Cc1nn(-c2nccs2)cc1-c1ccc(NC(=O)c2c(F)cccc2F)s1` [Example 69, 2,6-difluoro-N-(5-(3-methyl-1-(thiazol-2-yl)-1H-pyrazol-4-yl)thiophen-2-yl)benzamide], for which the IC50 in the assay on RBL-2H3 cells (Rattus norvegicus, RBL-2H3) was under 600 nM; on Orai1/STIM1, under 600 nM.

`CCc1nn(-c2nccs2)cc1-c1ccc(NC(=O)c2c(F)cc(F)cc2F)nc1` [Example 37, N-(5-(3-ethyl-1-(thiazol-2-yl)-1H-pyrazol-4-yl)pyridin-2-yl)-2,4,6-trifluorobenzamide]: the IC50 with RBL-2H3 cells (Rattus norvegicus, RBL-2H3) is under 600 nM; on Orai1/STIM1 it was under 600 nM.

Consider `Cc1cccc(F)c1C(=O)Nc1ccc(-c2cn(-c3ccccc3F)nc2C)cn1` [Example 59, 2-fluoro-N-(5-(1-(2-fluorophenyl)-3-methyl-1H-pyrazol-4-yl)pyridin-2-yl)-6-methylbenzamide], for which the IC50 in the assay with RBL-2H3 cells (Rattus norvegicus, RBL-2H3) is under 600 nM; at Orai1/STIM1 it was under 600 nM.

With `O=C(Nc1ccc(-c2cn(-c3nccs3)nc2C2CC2)c(F)c1)c1c(F)ccc(F)c1F` [Example 42, N-(4-(3-cyclopropyl-1-(thiazol-2-yl)-1H-pyrazol-4-yl)-3-fluorophenyl)-2,3,6-trifluorobenzamide], the IC50 is under 600 nM with RBL-2H3 cells (Rattus norvegicus, RBL-2H3) and 600 to 1200 nM on Orai1/STIM1.

In the case of `Cc1nn(-c2nccs2)cc1-c1ccc(NC(=O)c2c(F)cc(F)cc2F)nc1` [Example 21, 2,4,6-trifluoro-N-(5-(3-methyl-1-(thiazol-2-yl)-1H-pyrazol-4-yl)pyridin-2-yl)benzamide], the IC50 was under 600 nM with RBL-2H3 cells (Rattus norvegicus, RBL-2H3) and under 600 nM on Orai1/STIM1.

With `Cc1cccc(F)c1C(=O)Nc1ccc(-c2cn(-c3nccs3)nc2C)s1` [Example 71, 2-fluoro-6-methyl-N-(5-(3-methyl-1-(thiazol-2-yl)-1H-pyrazol-4-yl)thiophen-2-yl)benzamide], the IC50 in the assay on RBL-2H3 cells (Rattus norvegicus, RBL-2H3) was under 600 nM; at Orai1/STIM1, 600 to 1200 nM.

With `Cc1nn(-c2nccs2)cc1-c1ccc(NC(=O)c2ccccc2F)cc1` [Example 2, 2-fluoro-N-(4-(3-methyl-1-(thiazol-2-yl)-1H-pyrazol-4-yl)phenyl)benzamide], the IC50 is under 600 nM in the assay on RBL-2H3 cells (Rattus norvegicus, RBL-2H3) and under 600 nM on Orai1/STIM1.

As for `Cc1nn(-c2cc(F)ccc2F)cc1-c1ccc(NC(=O)c2c(F)ccc(F)c2F)nc1` [Example 56, N-(5-(1-(2,5-difluorophenyl)-3-methyl-1H-pyrazol-4-yl)pyridin-2-yl)-2,3,6-trifluorobenzamide], the IC50 in the assay with RBL-2H3 cells (Rattus norvegicus, RBL-2H3) is over 1200 nM; on Orai1/STIM1, under 600 nM.

Turning to `CCc1nn(-c2nccs2)cc1-c1ccc(NC(=O)c2c(C)cccc2F)cc1` [Example 8, N-(4-(3-ethyl-1-(thiazol-2-yl)-1H-pyrazol-4-yl)phenyl)-2-fluoro-6-methylbenzamide], the IC50 with RBL-2H3 cells (Rattus norvegicus, RBL-2H3) is under 600 nM; on Orai1/STIM1 it was 600 to 1200 nM.

For “N-(4-(3-ethyl-1-(thiazol-2-yl)-1H-pyrazol-4-yl)phenyl)-2,3,6-trifluorobenzamide [Example 9]”, the IC50 in the assay with RBL-2H3 cells is under 600 nM; at Orai1/STIM1, 600 to 1200 nM.
